The results in this text go back to ChEMBL document CHEMBL4017513, “Structure-Activity Relationships of Potent, Targeted Covalent Inhibitors That Abolish Both the Transamidation and GTP Binding Activities of Human Tissue Transglutaminase” (J Med Chem, 2017).

For experiment [1], the target named is T1, Protein-glutamine gamma-glutamyltransferase (Homo sapiens) (UniProt P21980).
T1 sequence (whole entry): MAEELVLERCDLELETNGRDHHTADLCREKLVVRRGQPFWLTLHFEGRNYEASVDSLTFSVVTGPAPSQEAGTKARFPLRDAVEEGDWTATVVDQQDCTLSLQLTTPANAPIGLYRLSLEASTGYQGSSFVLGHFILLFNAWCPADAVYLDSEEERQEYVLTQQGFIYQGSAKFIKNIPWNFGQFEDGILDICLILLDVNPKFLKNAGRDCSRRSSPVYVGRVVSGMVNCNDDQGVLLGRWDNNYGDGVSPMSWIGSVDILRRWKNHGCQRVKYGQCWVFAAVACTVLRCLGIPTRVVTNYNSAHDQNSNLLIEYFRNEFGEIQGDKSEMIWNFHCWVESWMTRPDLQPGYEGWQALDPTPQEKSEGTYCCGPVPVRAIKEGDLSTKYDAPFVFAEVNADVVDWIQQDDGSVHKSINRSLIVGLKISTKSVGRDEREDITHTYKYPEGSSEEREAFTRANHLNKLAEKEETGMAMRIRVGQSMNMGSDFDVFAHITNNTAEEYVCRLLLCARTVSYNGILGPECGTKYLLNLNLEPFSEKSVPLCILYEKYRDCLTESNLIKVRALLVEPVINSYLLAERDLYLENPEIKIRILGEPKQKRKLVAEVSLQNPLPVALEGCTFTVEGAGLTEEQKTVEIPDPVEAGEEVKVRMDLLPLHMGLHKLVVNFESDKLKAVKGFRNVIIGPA
Put plainly: (§1) Irreversible inhibition of human TG2 using AL5 as substrate by double reciprocal plot method.

The target of experiment [2] is T2, Protein-glutamine gamma-glutamyltransferase (Homo sapiens, UniProt P21980).
T2 sequence (P21980 whole entry): T1 sequence (whole entry)
The experiment is described as §1.

Experiment [3] deals with T1, Protein-glutamine gamma-glutamyltransferase (Homo sapiens). The experiment can be described thus: Ratio of kinact to Ki for human TG2 by double reciprocal plot method.
For experiment [4] the target is unchanged. Put plainly: (§2) Irreversible inhibition of human TG2 using AL5 as substrate by colorimetric assay.
Experiment [5] deals with T2, Protein-glutamine gamma-glutamyltransferase. Described as §2.
In experiment [6] the target is T1, Protein-glutamine gamma-glutamyltransferase (Homo sapiens). Put plainly: Ratio of kinact to Ki for human TG2 by colorimetric assay.
Experiment [7] is described as follows: Inhibition of human ECS cells invasion by using Engelbreth-Holm-Swarm mouse tumor matrigel measured after 18 hrs by DAPI staining-based flourescence microscopy. It counts as functional, cell-based.
A short description of experiment [8]: Inhibition of guinea pig liver TG2 using Z-Gln-Gly/DMPDA as substrate preincubated for 3 mins followed by protein addition. Set-up: species or system Cavia porcellus.
The species named for the next experiment is Cavia porcellus. Put plainly: Ratio of Kinact to Ki for guinea pig liver TG2.

SMILES strings stand for the structures. Peptide text beside a SMILES is read from it. * marks the point of attachment. Cbz = O=C(OCc1ccccc1)*; Acryloyl = C=CC(=O)*

The EC50 is the concentration giving half of the maximal effect. A lower EC50 goes with higher potency in that assay.

The molecule `C=CC(=O)NCCC[C@H](NC(=O)OCc1ccccc1)C(=O)N1CCN(S(=O)(=O)c2cccc3c(N(C)C)cccc23)CC1` came in with a Kinact in experiment [1] of 1.18 min⁻¹. The same molecule gave a Ki in [2] of 47.7 µM. In addition, the Ratio in experiment [3] was determined as 24.7 ×10³ /M/min.
As for `C=CC(=O)NCCCC[C@H](NC(=O)OCc1ccccc1)C(=O)N1CCN(S(=O)(=O)CC)CC1`, the Kinact in experiment [4] came to 1.42 min⁻¹. Moreover, in experiment [5], the Ki came out at 36 µM. The Ratio in [6] came to 39.4 ×10³ /M/min.
`C=CC(=O)NCCCC[C@H](NC(=O)OCc1ccccc1)C(N)=O`: the Kinact in [1] was 1.08 min⁻¹. Moreover, the Ki in experiment [2] stood at 35.1 µM. Also, the Ratio in experiment [3] worked out at 30.7 ×10³ /M/min.
Turning to `C=CC(=O)NCCCC[C@H](NC(=O)OCc1ccccc1)C(=O)N1CCN(C(=O)c2cccnc2)CC1`, the Kinact in [4] came out at 1.44 min⁻¹. In addition, the Ki in [5] stood at 23.4 µM. Further, the Ratio in [6] amounted to 61.4 ×10³ /M/min.
Consider `C=CC(=O)NCCCC[C@H](NC(=O)OCc1ccccc1)C(=O)N1CCN(S(=O)(=O)c2ccc3ccccc3c2)CC1`, for which, in experiment [4], the Kinact is 0.38 min⁻¹. This molecule also showed a Ki in [5] of 6.7 µM. For the same molecule, the Ratio in experiment [6] was 57.3 ×10³ /M/min.
The molecule `C=CC(=O)NCCCC[C@H](NC(=O)OCc1ccccc1)C(=O)N1CCN(c2ccccc2Cl)CC1` yielded a Kinact in experiment [4] of 0.97 min⁻¹. This molecule showed a Ki in experiment [5] of 17.4 µM. Further, the Ratio in experiment [6] was 56 ×10³ /M/min.
Turning to `C=CC(=O)NCCCC[C@H](NC(=O)OCc1ccccc1)C(=O)N1CCN(C(=O)c2ccncc2)CC1`, in experiment [4], the Kinact amounted to 1.43 min⁻¹. Moreover, in [5], the Ki came out at 38.7 µM. In [6], the Ratio came out at 37 ×10³ /M/min.
Turning to `C=CC(=O)NCCCC[C@H](NC(=O)OCc1ccccc1)C(=O)N1CCN(S(C)(=O)=O)CC1`, the Kinact in [4] turned out to be 0.5 min⁻¹. Also, the Ki in experiment [5] came out at 6.4 µM. In experiment [6], the Ratio amounted to 78.4 ×10³ /M/min.
Consider `C=CC(=O)NCCCC[C@H](NC(=O)OCc1ccccc1)C(=O)N1CCN(C(=O)c2ccccn2)CC1`, for which the Kinact in experiment [4] turned out to be 2.93 min⁻¹. The same molecule returned a Ki in experiment [5] of 32.1 µM. The Ratio in [6] was 91.3 ×10³ /M/min.
Regarding `C=CC(=O)NCCCC[C@H](NC(=O)OCc1ccccc1)C(=O)NCCCCNS(=O)(=O)c1cccc2c(N(C)C)cccc12`, the Kinact in experiment [1] amounted to 2.19 min⁻¹. Besides, the Ki in [2] was found to be 27.1 µM. In addition, in experiment [3], the Ratio turned out to be 80.8 ×10³ /M/min.
Molecule `C=CC(=O)NCCCC[C@H](NC(=O)OCc1ccccc1)C(=O)NCC(=O)OC` (Cbz-Lys(Acryloyl)-Gly-OMe) displayed a Kinact in experiment [4] of 1.45 min⁻¹. For the same molecule, the Ki in experiment [5] came to 40 µM. In addition, the Ratio in [6] was 36.2 ×10³ /M/min.
In turn, `C=CC(=O)NCCCC[C@H](NC(=O)OCc1ccccc1)C(=O)N1CCN(C(=O)c2cccc3ccccc23)CC1` had a Ki in experiment [5] of 8.9 µM.
`C=CC(=O)NCCCC[C@H](NC(=O)OCc1ccccc1)C(=O)N1CCN(C(=O)c2ccc3ccccc3c2)CC1`: the Kinact in [4] was 1.21 min⁻¹. This molecule gave a Ki in experiment [5] of 13.4 µM. Also, the Ratio in experiment [6] was 90.3 ×10³ /M/min.
With `C=CC(=O)NCCCC[C@H](NC(=O)OCc1ccccc1)C(=O)N1CCN(C(C)=O)CC1`, in [4], the Kinact amounted to 2.06 min⁻¹. In addition, in experiment [5], the Ki amounted to 52.1 µM. The Ratio in experiment [6] amounted to 36.9 ×10³ /M/min.
In the case of `C=CC(=O)NCCCC[C@H](NC(=O)OCc1ccccc1)C(=O)N1CCN(S(=O)(=O)C2CCCCC2)CC1`, the Kinact in [4] is 0.69 min⁻¹. Also, in experiment [5], the Ki was 11 µM. In addition, the Ratio in [6] came out at 62.9 ×10³ /M/min.
`C=CC(=O)NCCCC[C@H](NC(=O)OCc1ccccc1)C(=O)N1CCN(S(=O)(=O)c2cccc3c(N(C)C)cccc23)CC1` registered a Ki in [5] of 12.9 µM. In experiment [7], this molecule had an EC50 of 3.9 µM.
For the molecule `C=CC(=O)NCCCC[C@H](NC(=O)OCc1ccccc1)C(=O)N1CCN(C(=O)Cc2ccccc2)CC1`, in experiment [4], the Kinact turned out to be 2.26 min⁻¹. Moreover, the Ki in experiment [5] turned out to be 20 µM. For the same molecule, the Ratio in experiment [6] turned out to be 113 ×10³ /M/min.
For the molecule `C=CC(=O)NCCCC[C@H](NC(=O)OCc1ccccc1)C(=O)N1CCN(S(=O)(=O)c2cccc3ccccc23)CC1`, in experiment [4], the Kinact is 0.39 min⁻¹. The Ki in experiment [5] amounted to 10.4 µM. In experiment [6], the Ratio was 37.2 ×10³ /M/min.
In experiment [4], `C=CC(=O)NCCCC[C@H](NC(=O)OCc1ccccc1)C(=O)N1CCN(C(=O)c2ccccc2)CC1` displayed a Kinact of 4.77 min⁻¹. Moreover, the Ki in [5] came to 36.6 µM. Further, the Ratio in experiment [6] was 130 ×10³ /M/min.
In experiment [1], `C=CC(=O)NCCCC[C@H](NC(=O)OCc1ccccc1)C(=O)NCCCNS(=O)(=O)c1cccc2c(N(C)C)cccc12` registered a Kinact of 0.85 min⁻¹. The molecule further displayed a Ki in experiment [2] of 30.5 µM. Besides, in [3], the Ratio was found to be 27.6 ×10³ /M/min.
For the molecule `C=CC(=O)NCCCC[C@H](NC(=O)OCc1ccccc1)C(=O)N1CCN(S(=O)(=O)C(C)C)CC1`, the Kinact in [4] came to 0.5 min⁻¹. Besides, in experiment [5], the Ki came out at 9.1 µM. Also, the Ratio in experiment [6] came out at 54.7 ×10³ /M/min.
The corresponding values for `C=CC(=O)NCCCC[C@H](NC(=O)OCc1ccccc1)C(=O)N1CCN(C(=O)c2cc3ccc(O)cc3oc2=O)CC1` are 0.69 min⁻¹, 11.2 µM and 62.1 ×10³ /M/min.
In [4], `C=CC(=O)NCCCC[C@H](NC(=O)OCc1ccccc1)C(=O)N1CCN(S(=O)(=O)Cc2ccccc2)CC1` returned a Kinact of 0.47 min⁻¹. The molecule further showed a Ki in experiment [5] of 14.7 µM. For the same molecule, the Ratio in [6] is 34.9 ×10³ /M/min.
`C=CC(=O)NCCCC[C@H](NC(=O)OCc1ccccc1)C(=O)N1CCN(S(=O)(=O)c2ccccc2)CC1` came in with a Kinact in experiment [4] of 0.47 min⁻¹. The molecule also came in with a Ki in [5] of 8.8 µM. Moreover, the Ratio in experiment [6] was determined as 53.3 ×10³ /M/min.
For `C=CC(=O)NCCCC[C@H](NC(=O)OCc1ccccc1)C(=O)O`, the figures for the Ki in [5] and in experiment [8] were 60.3 µM and 0.52 µM, respectively.
Molecule `C=CC(=O)NCCCC[C@H](NC(=O)OCc1ccccc1)C(=O)NCC(=O)O` (Cbz-Lys(Acryloyl)-Gly-OH) registered a Kinact in experiment [4] of 1.26 min⁻¹. Further, the Ki amounted to 48.1 µM in experiment [5] and 0.15 µM in experiment [8]. Also, the results for the Ratio (in [6]; in the experiment filed under Cavia porcellus) were 26.1 ×10³ /M/min and 3 ×10⁶ /M/min, respectively.
The molecule `C=CC(=O)NCCCC[C@H](NC(=O)OCc1ccccc1)C(=O)NCCNS(=O)(=O)c1cccc2c(N(C)C)cccc12` yielded a Kinact in experiment [1] of 1.45 min⁻¹. Also, the Ki in [2] came to 23.5 µM. Moreover, the Ratio in experiment [3] is 61.5 ×10³ /M/min.
In the case of `C=CC(=O)NCCCC[C@H](NC(=O)OCc1ccccc1)C(=O)N1CCN(S(=O)(=O)c2cccs2)CC1`, the Kinact in experiment [4] worked out at 1.48 min⁻¹. This molecule also came in with a Ki in experiment [5] of 40.1 µM. Further, the Ratio in experiment [6] turned out to be 36.8 ×10³ /M/min.
As for `C=CC(=O)NCCCC[C@H](NC(=O)OCc1ccccc1)C(=O)N1CCOCC1`, the Kinact in experiment [4] was 1.47 min⁻¹. The molecule further registered a Ki in experiment [5] of 28.9 µM. For the same molecule, the Ratio in experiment [6] was determined as 51 ×10³ /M/min.
